# Key:
# human MRS2 = biological target: T1, human MRS2 (Homo sapiens, UniProt Q9HD23); test: Dynamic light scattering of purified full-length MRS2 assembly; type: binding; conditions: 0.5 mM
# T1 construct: 6xHis (N, cleaved yes); made in house; host or cells: BL21 (DE3) codon+ Escherichia coli, pET-28a
# T1 sequence (Q9HD23 58-443): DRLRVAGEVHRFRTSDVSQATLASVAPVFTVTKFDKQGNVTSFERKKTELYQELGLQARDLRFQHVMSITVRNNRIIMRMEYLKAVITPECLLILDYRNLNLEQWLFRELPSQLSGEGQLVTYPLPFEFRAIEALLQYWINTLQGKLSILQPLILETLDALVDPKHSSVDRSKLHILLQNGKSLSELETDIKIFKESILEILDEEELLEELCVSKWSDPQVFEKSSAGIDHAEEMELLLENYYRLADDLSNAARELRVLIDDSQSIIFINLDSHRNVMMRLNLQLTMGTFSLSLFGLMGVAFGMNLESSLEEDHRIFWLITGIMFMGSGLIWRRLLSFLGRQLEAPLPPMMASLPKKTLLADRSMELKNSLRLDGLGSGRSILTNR
# Method: Next, CPACC was assessed to determine if it directly affects the assembly of purified human MRS2 using dynamic light scattering (DLS). DLS has been used to determine whether the complex stability of proteins/channels is altered by molecular chaperones or drugs (Kitamura et al., 2006). Because of the high sensitivity of DLS to changes in complex sizes, full-length Mrs2 assembly was evaluated in the presence Ca^2+ (5 mM), Mg^2+ (5 mM), Co^2+ (5 mM) or the Mrs2 blocker CPACC (0.5 mM) (FIG. 10K, FIG. 10L, FIG. 10M, FIG. 10N, FIG. 10O). […] A concentration-response assessment confirmed robust decreases in hydrodynamic radii at all CPACC concentrations tested and as low as 10 μM (FIG. 10O).
# MRS2 cloning, expression, and purification. The full length human MRS2 (NCBI accession NP_065713.1), identified as MRS258-443 (i.e. residues 58-443) and excluding the mitochondrial targeting sequence, was cloned into pET-28a using Ndel and Xhol restriction sites. […]
# Dynamic light scattering (DIS). […] The sample was equilibrated for 5 min at 20° C. before 10 autocorrelation function acquisitions of 5 s each were recorded and averaged. […] The dependence of hydrodynamic size on CPACC concentration was determined using ≈0.5 mg/mL protein supplemented with 0.01 mM, 0.05 mM, 0.1 mM, 0.5 mM or 0.75 mM CPACC, using a similar experimental setup as described above and cumulants analysis.
# hepatocytes = test: Cellular uptake assay (GFAAS, Co normalised to protein); type: in vitro ADME, murine; conditions: intact hepatocytes
# Method: Cellular uptake assay. Hepatocytes were treated with varying doses of CPACC for 30 minutes, cells were washed in Ca^2+ and Mg^2+ free DPBS, and cell pellets flash-frozen. Pellets were suspended in ice cold lysis buffer (0.1% Triton X-100 and 0.2% HNO3 in ultrapure water). The suspension was vortexed for 30 s and incubated on ice for 45 min. The cell lysate was centrifuged, and the supernatant was transferred to a clean tube prior to analysis. The Co^3+ content of the lysate was determined using graphite furnace atomic absorption spectroscopy (GFAAS) and was normalized to the protein content of the sample, which was determined using the bicinchoninic acid (BCA) assay kit following manufacturer instructions (ThermoFisher). Results are reported as the average mass ratio of Co to protein (pg/μg) in each sample±SEM.
compound,measurement,setting,value
"[NH2][Co]([NH2])([NH2])([NH2])([NH2])[Cl] [CPACC, chloropentaammine cobalt (III) chloride]",full-length MRS2 complex sizes (DLS),human MRS2,potently decreased
same,cellular accumulation of the compound (intracellular Co),hepatocytes,accumulates in the cell in a dose-dependent manner
